Results on 35 compounds are retold here after patent publication US8497380B2, “Substituted acetophenones useful as PDE4 inhibitors” (Leo Pharma A/S, priority 2006, dated 2013).

Bounds are passed on as bounds.

The test concerns Human peripheral blood mononuclear cells (PBMC). Kind of test: TNFalfa-Release. To be noted: inhibition of TNF-a secretion, PBMC pre-incubated 30 minutes, stimulated 18 hours with lipopolysaccharide. Type of test: cell-based. As for the experimental part:
Human peripheral blood mononuclear cells (PBMC) are Isolated from buffy coats. The blood is mixed with saline at a ratio of 1:1, and the PBMC is isolated by the use of Lymphoprep Tubes™ (Nycomed, Norway). The PBMC is suspended in RPMI1640 with 2% foetal calf serum (FCS), pen/strep and 2 mM L-glutamine at a concentration of 5×105 c/ml. The cells are pre-incubated for 30 minutes with the test compounds in 96 well tissue culture plates and stimulated for 18 hours with lipopolysaccharide 1 mg/ml (Sigma). The level of TNF-a is measured in the culture supernatant by enzyme immuno assays using primary and secondary biotinylated antibodies from R&D systems. Results are expressed as pIC50 values calculated from inhibition curves using as positive controls the secretion in LPS stimulated wells and as negative controls the secretion in unstimulated cells.
Regarding `CCCCNC(=O)COc1c(C(=O)Cc2c(Cl)cncc2Cl)ccc(OC)c1OC` [Compound 210, N-Butyl-2-{6-[2-(3,5-dichloro-pyridin-4-yl)-acetyl]-2,3-dimethoxy-phenoxy}-acetamide], the IC50 is below 1000 nM.
Compound `COc1ccc(C(=O)Cc2c(Cl)cncc2Cl)c(OCc2cccc(OC(F)(F)F)c2)c1OC` [Compound 163, 2-(3,5-Dichloro-pyridin-4-yl)-1-[3,4-dimethoxy-2-(3-trifluoromethoxy-benzyloxy)-phenyl]-ethanone] gave an IC50 below 1000 nM.
The figure for `COc1ccc(C(=O)Cc2c(Cl)cncc2Cl)c(OCCCOCc2ccccc2)c1OC` [Compound 183, 1-[2-(3-Benzyloxy-propoxy)-3,4-dimethoxy-phenyl]-2-(3,5-dichloro-pyridin-4-yl)-ethanone] is below 1000 nM; for `COc1ccc(C(=O)Cc2c(Cl)cncc2Cl)c(OCCOc2ccc(Cl)cc2)c1OC` [Compound 153, 1-{2-[2-(4-Chloro-phenoxy)-ethoxy]-3,4-dimethoxy-phenyl}-2-(3,5-dichloro-pyridin-4-yl)-ethanone] it is below 1000 nM; for `COc1ccc(C(=O)Cc2c(Cl)cncc2Cl)c(OCC(=O)NCc2ccncc2)c1OC` [Compound 232, 2-{6-[2-(3,5-Dichloro-pyridin-4-yl)-acetyl]-2,3-dimethoxy-phenoxy}-N-pyridin-4-ylmethyl-acetamide] it is below 1000 nM.
`COc1ccc(C(=O)Cc2c(Cl)cncc2Cl)c(OC)c1OCC1CC1` [Compound 189, 1-(3-Cyclopropylmethoxy-2,4-dimethoxy-phenyl)-2-(3,5-dichloro-pyridin-4-yl)-ethanone] gave an IC50 below 1000 nM.
Under `CCOC(=O)CCCOc1c(C(=O)Cc2c(Cl)cncc2Cl)ccc(OC)c1OC` [Compound 142, 4-{6-[2-(3,5-Dichloro-pyridin-4-yl)-acetyl]-2,3-dimethoxy-phenoxy}-butyric acid ethyl ester] stands below 1000 nM; under `COc1ccc(C(=O)Cc2c(Cl)cncc2Cl)c(OCCc2ccncc2)c1OC` [Compound 277, 2-(3,5-Dichloro-pyridin-4-yl)-1-[3,4-dimethoxy-2-(2-pyridin-4-yl-ethoxy)-phenyl]-ethanone], below 1000 nM.
Compound `COc1ccc(C(=O)Cc2c(Cl)cncc2Cl)c(OCCc2cccc(Br)c2)c1OC` [Compound 127, 1-{2-[2-(3-Bromo-phenyl)-ethoxy]-3,4-dimethoxy-phenyl}-2-(3,5-dichloro-pyridin-4-yl)-ethanone] showed an IC50 below 1000 nM.
In the case of `COc1ccc(C(=O)Cc2c(Cl)cncc2Cl)c(OCC(=O)NC2CCCCC2)c1OC` [Compound 215, N-Cyclohexyl-2-{6-[2-(3,5-dichloro-pyridin-4-yl)-acetyl]-2,3-dimethoxy-phenoxy}-acetamide], the IC50 is below 1000 nM.
Under `COc1ccc(C(=O)Cc2c(Cl)cncc2Cl)c(OCC(N)=O)c1OC` [Compound 184, 2-{6-[2-(3,5-Dichloro-pyridin-4-yl)-acetyl]-2,3-dimethoxy-phenoxy}-acetamide] stands below 1000 nM; under `COc1ccc(C(=O)Cc2c(Cl)cncc2Cl)c(OCC(=O)NCc2ccccn2)c1OC` [Compound 229, 2-{6-[2-(3,5-Dichloro-pyridin-4-yl)-acetyl]-2,3-dimethoxy-phenoxy}-N-pyridin-2-ylmethyl-acetamide], below 1000 nM.
The figure for `COc1ccc(C(=O)Cc2c(Cl)cncc2Cl)c(OCC(=O)OC(C)C)c1OC` [Compound 133, {6-[2-(3,5-Dichloro-pyridin-4-yl)-acetyl]-2,3-dimethoxy-phenoxy}-acetic acid isopropyl ester] is below 1000 nM; for `COc1ccc(C(=O)Cc2c(Cl)cncc2Cl)c(OCc2csc(C)n2)c1OC` [Compound 116, 2-(3,5-Dichloro-pyridin-4-yl)-1-[3,4-dimethoxy-2-(2-methyl-thiazol-4-ylmethoxy)-phenyl]-ethanone] it is below 1000 nM.
Take `COc1ccc(C(=O)Cc2c(Cl)cncc2Cl)c(OCC(=O)NCc2ccccc2Cl)c1OC` [Compound 244, N-(2-Chloro-benzyl)-2-{6-[2-(3,5-dichloro-pyridin-4-yl)-acetyl]-2,3-dimethoxy-phenoxy}-acetamide]: the IC50 was below 1000 nM.
With `COc1ccc(C(=O)Cc2c(Cl)cncc2Cl)c(OCC(=O)NC(C)C)c1OC` [Compound 209, 2-{6-[2-(3,5-Dichloro-pyridin-4-yl)-acetyl]-2,3-dimethoxy-phenoxy}-N-isopropyl-acetamide], the IC50 was below 1000 nM.
The compound `COc1cccc(CCOc2c(C(=O)Cc3c(Cl)cncc3Cl)ccc(OC)c2OC)c1` [Compound 125, 2-(3,5-Dichloro-pyridin-4-yl)-1-{3,4-dimethoxy-2-[2-(3-methoxy-phenyl)-ethoxy]-phenyl}-ethanone] had a concentration for half-maximal inhibition (IC50) below 1000 nM.
Under `COc1ccc(C(=O)Cc2c(Cl)cncc2Cl)c(OCCC(C)C)c1OC` [Compound 135, 2-(3,5-Dichloro-pyridin-4-yl)-1-(3,4-dimethoxy-2-(3-methyl-butoxy)-phenyl)-ethanone] stands below 1000 nM; under `COc1ccc(C(=O)Cc2c(Cl)cncc2Cl)c(OCC(=O)NCCc2cccnc2)c1OC` [Compound 249, 2-{6-[2-(3,5-Dichloro-pyridin-4-yl)-acetyl]-2,3-dimethoxy-phenoxy}-14-(2-pyridin-3-yl-ethyl)-acetamide], below 1000 nM; under `C=CCOc1c(OC)ccc(C(=O)Cc2c(Cl)cncc2Cl)c1O` [Compound 266, 1-(3-Allyloxy-2-hydroxy-4-methoxy-phenyl)-2-(3,5-dichloro-pyridin-4-yl)-ethanone], below 1000 nM.
`COc1ccc(C(=O)Cc2c(Cl)cncc2Cl)c(OCC(=O)N2CCCC2)c1OC` [Compound 202, 2-(3,5-Dichloro-pyridin-4-yl)-1-[3,4-dimethoxy-2-(2-oxo-2-pyrrolidin-1-yl-ethoxy)-phenyl]-ethanone] had an IC50 below 1000 nM.
The compound `COc1ccc(C(=O)Cc2c(Cl)cncc2Cl)c(OCC(=O)OCc2ccccc2)c1OC` [Compound 132, {6-[2-(3,5-Dichloro-pyridin-4-yl)-acetyl]-2,3-dimethoxy-phenoxy}-acetic acid benzyl ester] had an IC50 below 1000 nM.
`CCOc1c(OC)ccc(C(=O)Cc2c(Cl)cncc2Cl)c1OCC(=O)OCc1ccccc1` [Compound 265, {6-[2-(3,5-Dichloro-pyridin-4-yl)-acetyl]-2-ethoxy-3-methoxy-phenoxy}-acetic acid benzyl ester] gave an IC50 below 1000 nM.
Under `COc1ccc(C(=O)Cc2c(Cl)cncc2Cl)c(OCCc2ccc(C#N)cc2)c1OC` [Compound 278, 4-(2-{6-[2-(3,5-Dichloro-pyridin-4-yl)-acetyl]-2,3-dimethoxy-phenoxy}-ethyl)-benzonitrile] stands below 1000 nM; under `COc1ccc(C(=O)Cc2c(Cl)cncc2Cl)c(OCC(=O)NC2c3ccccc3C[C@H]2O)c1OC` (stereo partly drawn) [Compound 256, (2R)-2-{6-[2-(3,5-Dichloro-pyridin-4-yl)-acetyl]-2,3-dimethoxy-phenoxy}-N-(2-hydroxy-indan-1-yl)-acetamide], below 1000 nM; under `COc1ccc(C(=O)Cc2c(Cl)cncc2Cl)c(OCCc2ccccn2)c1OC` [Compound 279, 2-(3,5-Dichloro-pyridin-4-yl)-1-[3,4-dimethoxy-2-(2-pyridin-2-yl-ethoxy)-phenyl]-ethanone], below 1000 nM.
Compound `CCc1ccc(CNC(=O)COc2c(C(=O)Cc3c(Cl)cncc3Cl)ccc(OC)c2OC)cc1` [Compound 233, 2-{6-[2-(3,5-Dichloro-pyridin-4-yl)-acetyl]-2,3-dimethoxy-phenoxy}-N-(4-ethyl-benzyl)-acetamide] showed an IC50 below 1000 nM.
As to `COc1cccc(CNC(=O)COc2c(C(=O)Cc3c(Cl)cncc3Cl)ccc(OC)c2OC)c1` [Compound 216, 2-{6-[2-(3,5-Dichloro-pyridin-4-yl)-acetyl]-2,3-dimethoxy-phenoxy}-N-(3-methoxy-benzyl)-acetamide], the IC50 was below 1000 nM.
`CCCNC(=O)COc1c(C(=O)Cc2ccncc2Br)ccc(OC)c1OC` [Compound 292, 2-{6-[2-(3-Bromo-pyridin-4-yl)-acetyl]-2,3-dimethoxy-phenoxy}-N-propyl-acetamide]: the 50% inhibitory concentration (IC50) is below 1000 nM.
Under `COc1ccc(C(=O)Cc2c(Cl)cncc2Cl)c(OCCCOc2ccccc2)c1OC` [Compound 145, 2-(3,5-Dichloro-pyridin-4-yl)-1-[3,4-dimethoxy-2-(3-phenoxy-propoxy)-phenyl]-ethanone] stands below 1000 nM.
The figure for `COc1ccc(C(=O)Cc2c(Cl)cncc2Cl)c(OCc2nnc(C3CC3)s2)c1OC` [Compound 117] is below 1000 nM; for `COc1ccc(C(=O)Cc2c(Cl)cncc2Cl)c(OCC(=O)NCc2ccc(Cl)cc2)c1OC` [Compound 248, N-(4-Chloro-benzyl)-2-{6-[2-(3,5-dichloro-pyridin-4-yl)-acetyl]-2,3-dimethoxy-phenoxy}-acetamide] it is below 1000 nM; for `COc1ccc(C(=O)Cc2c(Cl)cncc2Cl)c(OCC(=O)NCCC(C)C)c1OC` [Compound 212, 2-{6-[2-(3,5-Dichloro-pyridin-4-yl)-acetyl]-2,3-dimethoxy-phenoxy}-N-(3-methyl-butyl)-acetamide] it is below 1000 nM.
`COc1ccc(C(=O)Cc2c(Cl)cncc2Cl)c(OCc2ccccc2Cl)c1OC` [Compound 176, 1-[2-(2-Chloro-benzyloxy)-3,4-dimethoxy-phenyl]-2-(3,5-dichloro-pyridin-4-yl)-ethanone] had an IC50 below 1000 nM.
In turn, `COc1ccc(C(=O)Cc2c(Cl)cncc2Cl)c(OCCc2ccc(F)cc2)c1OC` [Compound 129, 2-(3,5-Dichloro-pyridin-4-yl)-1-{2-[2-(4-fluoro-phenyl)-ethoxy]-3,4-dimethoxy-phenyl}-ethanone] showed an IC50 below 1000 nM.
